For assay [1], the target named is Receptor-type tyrosine-protein phosphatase alpha (Homo sapiens) (UniProt P18433). As to the kind of experiment: Selectivity against protein tyrosine phosphatase alpha.
In assay [2] the target is Serine/threonine-protein phosphatase 2A catalytic subunit alpha isoform (Bos taurus) (UniProt P67774). Put plainly: Selectivity against protein phosphatase 2A.
For assay [3], the target named is T1, M-phase inducer phosphatase 2 (Homo sapiens, UniProt P30305).
T1 sequence (P30305 whole entry): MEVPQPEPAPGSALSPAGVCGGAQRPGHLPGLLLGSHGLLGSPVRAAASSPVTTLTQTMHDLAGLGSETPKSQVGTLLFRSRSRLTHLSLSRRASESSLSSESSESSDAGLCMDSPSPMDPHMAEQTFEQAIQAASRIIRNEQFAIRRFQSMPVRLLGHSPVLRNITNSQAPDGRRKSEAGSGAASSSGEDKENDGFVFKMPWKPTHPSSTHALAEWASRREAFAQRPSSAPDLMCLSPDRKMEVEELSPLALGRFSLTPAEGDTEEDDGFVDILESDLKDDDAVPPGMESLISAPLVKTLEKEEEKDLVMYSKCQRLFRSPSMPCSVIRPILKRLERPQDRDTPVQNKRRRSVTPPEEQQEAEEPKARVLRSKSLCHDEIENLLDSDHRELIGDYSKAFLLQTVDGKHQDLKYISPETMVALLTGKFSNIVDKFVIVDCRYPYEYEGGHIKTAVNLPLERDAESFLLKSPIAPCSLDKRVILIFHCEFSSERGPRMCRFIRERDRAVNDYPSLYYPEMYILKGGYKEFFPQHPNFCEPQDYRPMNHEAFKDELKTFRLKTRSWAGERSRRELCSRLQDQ
As to the kind of experiment: Inhibitory concentration to human cell division cycle 25B (Cdc25B).

Assay [4] deals with T2, Tyrosine-protein phosphatase non-receptor type 1 (Homo sapiens) (UniProt P18031).
T2 sequence (whole entry): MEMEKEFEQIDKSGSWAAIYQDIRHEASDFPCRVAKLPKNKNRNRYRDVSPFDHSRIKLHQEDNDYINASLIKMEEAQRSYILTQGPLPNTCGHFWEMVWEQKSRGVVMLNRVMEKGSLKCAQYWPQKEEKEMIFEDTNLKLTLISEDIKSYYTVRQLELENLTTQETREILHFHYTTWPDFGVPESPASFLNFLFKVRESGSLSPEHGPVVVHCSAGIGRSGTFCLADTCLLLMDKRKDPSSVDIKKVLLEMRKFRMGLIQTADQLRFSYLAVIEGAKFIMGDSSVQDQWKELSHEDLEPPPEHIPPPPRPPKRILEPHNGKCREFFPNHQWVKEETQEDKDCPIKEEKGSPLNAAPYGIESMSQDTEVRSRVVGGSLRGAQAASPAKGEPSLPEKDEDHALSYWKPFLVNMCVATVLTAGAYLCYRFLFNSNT
Put plainly: Selectivity against protein tyrosine phosphatase 1B.

SMILES strings stand for the structures.

Sequence of Serine/threonine-protein phosphatase 2A catalytic subunit alpha isoform (Bos taurus) (P67774 whole entry, canonical isoform): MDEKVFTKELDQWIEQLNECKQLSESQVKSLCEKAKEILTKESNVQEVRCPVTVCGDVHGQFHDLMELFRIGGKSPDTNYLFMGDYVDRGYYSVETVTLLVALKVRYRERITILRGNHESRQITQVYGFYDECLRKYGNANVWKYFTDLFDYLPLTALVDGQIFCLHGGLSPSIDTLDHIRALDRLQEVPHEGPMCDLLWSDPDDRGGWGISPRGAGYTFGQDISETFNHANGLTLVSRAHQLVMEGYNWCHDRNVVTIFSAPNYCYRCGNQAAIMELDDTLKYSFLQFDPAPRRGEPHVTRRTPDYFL
Sequence of Receptor-type tyrosine-protein phosphatase alpha (Homo sapiens) (P18433 20-802 limits assumed): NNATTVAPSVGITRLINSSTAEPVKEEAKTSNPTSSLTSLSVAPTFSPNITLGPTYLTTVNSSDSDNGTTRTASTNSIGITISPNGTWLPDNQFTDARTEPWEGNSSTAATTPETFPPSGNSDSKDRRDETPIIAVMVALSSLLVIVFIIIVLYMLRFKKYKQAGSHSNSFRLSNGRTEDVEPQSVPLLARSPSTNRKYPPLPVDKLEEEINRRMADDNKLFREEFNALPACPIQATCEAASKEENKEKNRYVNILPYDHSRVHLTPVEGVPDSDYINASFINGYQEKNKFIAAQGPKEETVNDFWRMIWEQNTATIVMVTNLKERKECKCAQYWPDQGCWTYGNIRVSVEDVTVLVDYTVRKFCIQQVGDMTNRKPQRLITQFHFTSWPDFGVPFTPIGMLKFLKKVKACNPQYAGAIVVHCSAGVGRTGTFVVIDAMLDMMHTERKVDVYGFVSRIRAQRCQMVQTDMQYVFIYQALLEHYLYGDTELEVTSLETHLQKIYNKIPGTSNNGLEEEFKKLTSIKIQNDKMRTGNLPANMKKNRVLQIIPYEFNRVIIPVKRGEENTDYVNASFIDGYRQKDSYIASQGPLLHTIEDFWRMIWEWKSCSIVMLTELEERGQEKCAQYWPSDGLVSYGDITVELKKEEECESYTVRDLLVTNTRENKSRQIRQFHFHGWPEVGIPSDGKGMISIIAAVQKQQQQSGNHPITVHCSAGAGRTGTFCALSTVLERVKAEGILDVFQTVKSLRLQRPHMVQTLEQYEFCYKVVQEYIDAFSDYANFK

As to `CC(C)CCC[C@@H](C)[C@H]1CC[C@H]2c3ccc(cc3CO)C[C@@H](O)CCC(C)CCC[C@]12C` (some centres undefined), the Selectivity in assay [1], in assay [2] and in assay [4] was above 30 µM in each case. In addition, in assay [3], the IC50 is above 30 µM.

On to `CC(=O)O[C@H]1CC/C(C)=C\CC[C@]2(C)[C@@H]([C@H](C)CCCC(C)C)CC[C@H]2c2ccc(cc2CO)C1`, for which the Selectivity in assay [1], in assay [2] and in assay [4] was above 30 µM throughout. In addition, the IC50 in assay [3] is above 30 µM.

With `C/C1=C/CC[C@]2(C)[C@@H]([C@H](C)CCCC(C)C)CC[C@H]2c2ccc(cc2C(C)O)C[C@@](C)(O)CC1` (some centres undefined), the Selectivity in assay [1], in assay [2] and in assay [4] was above 30 µM throughout. This molecule also displayed an IC50 in assay [3] above 30 µM.

As to `CC(=O)O[C@@]1(C)CCC(C)CCC[C@]2(C)[C@@H]([C@H](C)CCCC(C)C)CC[C@H]2c2ccc(cc2CN2CCOCC2)C1` (some centres undefined), the Selectivity in assay [1], in assay [2] and in assay [4] was above 30 µM throughout. In assay [3], this molecule showed an IC50 above 30 µM.

On to `CC(=O)O[C@H]1CC/C(C)=C\CC[C@]2(C)[C@@H]([C@H](C)CCCC(C)C)CC[C@H]2c2ccc(cc2C(=O)O)C1`, for which the Selectivity in assay [1], in assay [2] and in assay [4] was above 30 µM in each case. This molecule registered an IC50 in assay [3] of 5.6 µM.

Consider `CC(=O)c1cc2ccc1[C@@H]1CC[C@H]([C@H](C)CCCC(C)C)[C@@]1(C)CC/C=C(/C)CC[C@](C)(O)C2`, for which the Selectivity in assay [1], in assay [2] and in assay [4] was above 30 µM in each case. The IC50 in assay [3] was above 30 µM.

For `COC(=O)c1cc2ccc1[C@@H]1CC[C@H]([C@H](C)CCCC(C)C)[C@@]1(C)CC/C=C(/C)CCC(=O)C2`, the Selectivity in assay [1], in assay [2] and in assay [4] was above 30 µM throughout. Further, the IC50 in assay [3] was above 30 µM.

On to `Cc1cc2ccc1[C@@H]1CC[C@H]([C@H](C)CCCC(C)C)[C@@]1(C)CCCC(C)CC[C@](C)(O)C2` (some centres undefined), for which the Selectivity in assay [1], in assay [2] and in assay [4] was above 30 µM throughout. The same molecule returned an IC50 in assay [3] above 30 µM.

On to `C=CC[C@]1(O)CC/C(C)=C\CC[C@]2(C)[C@@H]([C@H](C)CCCC(C)C)CC[C@H]2c2ccc(cc2C(=O)O)C1`, for which the Selectivity in assay [1], in assay [2] and in assay [4] was above 30 µM each time. The IC50 in assay [3] was found to be 9.3 µM.

In the case of `CC(=O)O[C@@]1(C)CC/C(C)=C\CC[C@]2(C)[C@@H]([C@H](C)CCCC(C)C)CC[C@H]2c2ccc(cc2C(C)=O)C1`, the Selectivity in assay [1], in assay [2] and in assay [4] was above 30 µM each time. The molecule further came in with an IC50 in assay [3] above 30 µM.

On to `CC(=O)O[C@H]1CCC(C)CCC[C@]2(C)[C@@H]([C@H](C)CCCC(C)C)CC[C@H]2c2ccc(cc2C(=O)O)C1` (some centres undefined), for which the Selectivity in assay [1], in assay [2] and in assay [4] was above 30 µM throughout. Moreover, inhibition in assay [3] was half-maximal at 7.8 µM (IC50).

In assay [3], `C/C1=C/CC[C@]2(C)[C@@H]([C@H](C)COC(=O)c3ccccc3)CC[C@H]2c2ccc(cc2C(=O)O)C[C@@H](O)CC1` had an IC50 of 6.5 µM.

`C=CC[C@@]1(O)CC/C(C)=C\CC[C@]2(C)[C@@H]([C@H](C)CCCC(C)C)CC[C@H]2c2ccc(cc2C(=O)O)C1`: the Selectivity in assay [1], in assay [2] and in assay [4] was above 30 µM throughout. Also, the IC50 in assay [3] worked out at 8.4 µM.

With `C/C1=C/CC[C@]2(C)[C@@H]([C@H](C)CCCC(C)C)CC[C@H]2c2ccc(cc2C(=O)O)CC(O)CC1` (some centres undefined), the Selectivity in assay [1], in assay [2] and in assay [4] was above 30 µM in each case. In assay [3], this molecule gave an IC50 of 7.9 µM.

In the case of `C/C1=C/CC[C@]2(C)[C@@H]([C@H](C)CCCC(C)C)CC[C@H]2c2ccc(cc2CO)C[C@@H](O)CC1`, the Selectivity in assay [1], in assay [2] and in assay [4] was above 30 µM in each case. The molecule also yielded an IC50 in assay [3] above 30 µM.

As for `C/C1=C/CC[C@]2(C)[C@@H]([C@H](C)CCCC(C)C)CC[C@H]2c2ccc(cc2C(=O)O)C[C@H](Oc2ccccc2)CC1`, the Selectivity in assay [1], in assay [2] and in assay [4] was above 30 µM throughout. Besides, the IC50 in assay [3] was found to be 7.1 µM.

For the molecule `CC(=O)O[C@H]1CC/C(C)=C\CC[C@]2(C)[C@@H]([C@H](C)CCCC(C)C)CC[C@H]2c2ccc(cc2C=O)C1`, the Selectivity in assay [1], in assay [2] and in assay [4] was above 30 µM each time. Also, half-maximal inhibition in assay [3] (IC50) required 4.9 µM.

On to `C/C1=C/CC[C@]2(C)[C@@H]([C@H](C)CCCC(C)C)CC[C@H]2c2ccc(cc2C(=O)O)CC(=O)CC1`, for which the Selectivity in assay [1], in assay [2] and in assay [4] was above 30 µM each time. Further, in assay [3], 8.5 µM corresponded to half-maximal inhibition (IC50).

`CC(=O)O[C@@]1(C)CCC(C)CCC[C@]2(C)[C@@H]([C@H](C)CCCC(C)C)CC[C@H]2c2ccc(cc2C)C1` (some centres undefined): the Selectivity in assay [1], in assay [2] and in assay [4] was above 30 µM each time. Further, the midpoint of inhibition in assay [3], the IC50, lay at 11 µM.

With `COC(=O)c1cc2ccc1[C@@H]1CC[C@H]([C@H](C)CCCC(C)C)[C@@]1(C)CC/C=C(/C)CC[C@H](OC(C)=O)C2`, the Selectivity in assay [1], in assay [2] and in assay [4] was above 30 µM throughout. The molecule also registered an IC50 in assay [3] above 30 µM.

As to `CC(=O)O[C@H]1CC[C@](C)(C2CC[C@@]3(C)C(CC[C@@H]3[C@H](C)CCCC(C)C)[C@@H]2CC(=O)O)C(=O)O1` (some centres undefined), half-maximal inhibition in assay [3] (IC50) was put at 8.7 µM.

Turning to `CC(C)CCC[C@@H](C)[C@H]1CC[C@H]2c3ccc(cc3C(=O)O)CC(O)CCC(C)CCC[C@]12C` (some centres undefined), the Selectivity in assay [1], in assay [2] and in assay [4] was above 30 µM in each case. Further, the IC50 in assay [3] was 4.9 µM.

Take `COC(=O)C(=O)O[C@H]1CC/C(C)=C\CC[C@]2(C)[C@@H]([C@H](C)CCCC(C)C)CC[C@H]2c2ccc(cc2C(=O)O)C1`: the Selectivity in assay [1], in assay [2] and in assay [4] was above 30 µM throughout. Besides, the IC50 in assay [3] worked out at 11 µM.

Take `COC(=O)c1cc2ccc1[C@@H]1CC[C@H]([C@H](C)CCCC(C)C)[C@@]1(C)CC/C=C(/C)CC[C@H](O)C2`: the Selectivity in assay [1], in assay [2] and in assay [4] was above 30 µM throughout. The same molecule had a concentration for half-maximal inhibition (IC50) in assay [3] above 30 µM.

Take `CC(C)CCC[C@@H](C)[C@H]1CC[C@H]2c3ccc(cc3C(=O)O)CC(=O)CCC(C)CCC[C@]12C` (some centres undefined): the Selectivity in assay [1] is above 30 µM; in assay [2], 25 µM; in assay [4] it was above 30 µM. 3.4 µM corresponded to half-maximal inhibition in assay [3] (IC50).

`CC(=O)O[C@@]1(C)CC/C(C)=C\CC[C@]2(C)[C@@H]([C@H](C)CCCC(C)C)CC[C@H]2c2ccc(cc2C(C)O)C1` (some centres undefined): the Selectivity in assay [1], in assay [2] and in assay [4] was above 30 µM throughout. The IC50 in assay [3] was above 30 µM.

On to `CC(=O)CC(=O)O[C@H]1CC/C(C)=C\CC[C@]2(C)[C@@H]([C@H](C)CCCC(C)C)CC[C@H]2c2ccc(cc2C(=O)O)C1`, for which the Selectivity in assay [1], in assay [2] and in assay [4] was above 30 µM in each case. This molecule also yielded a half-maximal inhibitory concentration (IC50) in assay [3] of 7.5 µM.

Consider `C/C1=C/CC[C@]2(C)[C@@H]([C@H](C)CCCC(C)C)CC[C@H]2c2ccc(cc2C=O)C[C@@H](O)CC1`, for which the Selectivity in assay [1], in assay [2] and in assay [4] was above 30 µM each time. In assay [3], this molecule yielded an IC50 of 11 µM.

For `C/C1=C/CC[C@]2(C)[C@@H]([C@H](C)CCCC(C)C)CC[C@H]2c2ccc(cc2C=O)C[C@H](Oc2ccccc2)CC1`, the Selectivity in assay [1], in assay [2] and in assay [4] was above 30 µM each time. Moreover, in assay [3], the IC50 came to 3.5 µM.

For `COCc1cc2ccc1[C@@H]1CC[C@H]([C@H](C)CCCC(C)C)[C@@]1(C)CC/C=C(/C)CC[C@](C)(OC(C)=O)C2`, the Selectivity in assay [1], in assay [2] and in assay [4] was above 30 µM each time. This molecule displayed an IC50 in assay [3] of 29 µM.

What is called IC50 is the concentration that inhibits the measured activity by half. Higher therefore signals weaker potency.

These data come from ChEMBL document CHEMBL1148233, “Design and synthesis of macrocyclic inhibitors of phosphatase cdc25B” (Bioorg Med Chem Lett, 2004).
